Results on 3 molecules are retold here after patent US11266622B2, “Method of treatment” (Vanda Pharmaceuticals Inc., priority 2014, dated 2022).

The target of data set [1] is Mel1a (MT1R) (Homo sapiens, UniProt P48039). In words: Affinity (Ki) for melatonin receptor MT1R. The class given is binding.
Data set [2] in a line: Solubility of tasimelteon in solvents and water. In kind it is physicochemical.
Data set [3] relates to sleep parameters. As to conditions: cited from earlier work.
Data set [4] concerns the target T1, Mel1b (MT2R) (Homo sapiens, UniProt P49286).
T1 sequence (P49286 1-362): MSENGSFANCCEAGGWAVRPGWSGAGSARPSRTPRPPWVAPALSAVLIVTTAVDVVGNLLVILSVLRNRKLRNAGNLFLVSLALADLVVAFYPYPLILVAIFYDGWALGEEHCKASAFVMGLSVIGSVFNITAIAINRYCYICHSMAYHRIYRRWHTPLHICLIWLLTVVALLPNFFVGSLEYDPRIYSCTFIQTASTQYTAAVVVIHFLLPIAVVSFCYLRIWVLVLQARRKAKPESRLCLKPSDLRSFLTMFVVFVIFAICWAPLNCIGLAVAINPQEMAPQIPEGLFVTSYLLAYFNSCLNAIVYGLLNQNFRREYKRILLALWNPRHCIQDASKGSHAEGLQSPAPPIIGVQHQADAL
In words: Affinity (Ki) for melatonin receptor MT2R. The class given is binding.

The nature of data set [5]: Metabolite formation following oral administration of tasimelteon. In kind it is in vivo. As to conditions: humans.

Molecules are shown by their SMILES.

Sequence of Mel1a (MT1R) (P48039 whole entry): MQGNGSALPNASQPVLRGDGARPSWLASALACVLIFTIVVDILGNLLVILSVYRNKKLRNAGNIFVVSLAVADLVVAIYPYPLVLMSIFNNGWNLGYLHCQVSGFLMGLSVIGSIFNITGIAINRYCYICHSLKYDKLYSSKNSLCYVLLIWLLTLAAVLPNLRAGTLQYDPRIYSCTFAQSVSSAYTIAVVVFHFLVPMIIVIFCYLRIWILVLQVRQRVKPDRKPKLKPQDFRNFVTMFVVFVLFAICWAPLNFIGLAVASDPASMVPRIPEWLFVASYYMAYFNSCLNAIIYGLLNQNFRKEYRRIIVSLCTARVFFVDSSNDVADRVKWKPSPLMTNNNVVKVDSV

On to `CCC(=O)NC[C@@H]1C[C@H]1c1cccc2c1CCO2` (relative stereo) [Tasimelteon, trans-N-[[2-(2,3-dihydrobenzofuran-4-yl)cycloprop-1yl]methyl]propanamide], for which the inhibition constant Ki (usually the equilibrium dissociation constant of an inhibitor or competing ligand from its target) in data set [1] fell in the range of 0.3 to 0.4 nM; in data set [4] it was 0.1 to 0.2 nM. Also, the “solubility in organic solvents” value in data set [2] (95% ethanol, methanol, acetonitrile, ethyl acetate, isopropanol, polyethylene glycols (PEG-300 and PEG-400)) was “very soluble or freely soluble”. Also, in data set [2] (aqueous), the “effect of pH on aqueous solubility” value is “practically unaffected by pH”. Also, in data set [2] (saturated solution in water), the “native pH of a saturated solution in water” value worked out at 8.5. Further, the solubility in water result in data set [2] (water) was “only slightly soluble”. In addition, in data set [3] (prior clinical studies, simulated desynchronization of the circadian clock), the “effect on sleep parameters” value is reported as “shown to improve sleep parameters”. In addition, in data set [3] (studied in hundreds of individuals), the tolerability profile result is recorded as “good tolerability profile”. The “greater affinity for MT2R relative to MT1R” value in data set [4] (MT2R relative to MT1R) is 2-4 times.

On to `CCC(=O)NC[C@@H]1C[C@H]1c1cccc(O)c1CC(=O)O` [M9], for which the formation as metabolite result in data set [5] was “formed in humans”.

Take `CCC(=O)NC[C@@H]1C[C@H]1c1cccc(O)c1CCO` [M11]: the formation as metabolite result in data set [5] is on record as “formed in humans”.
